In this test the target is T1, human dopamine transporter (hDAT) (Homo sapiens, UniProt Q01959).
T1 construct: expressed in transfected cells; host or cells: CHO-Ki (CHO-K1)
Description: Dopamine uptake inhibition in CHO-Ki/hDAT cells. It is filed as cell-based. The settings on record: 50 nM [3H]Dopamine, 10 minutes. How it is done: CHO-Ki/hDAT cells expressing the human dopamine transporter (hDAT) were plated before the assay. Cells (2×10^5/ml) were incubated with the compound of the formula I (3-n-butylphthalide) and/or vehicle in modified Tris-HEPES buffer pH 7.1 at 25° C. for 20 minutes before addition of 50 nM [^3H]Dopamine for 10 minutes. Specific signal was determined in the presence of 10 μM nomifensine. Cells were then solubilized with 1% […] lysis buffer. Reduction of [^3H]Dopamine uptake by 50 percent or more 50%) relative to vehicle controls indicates significant inhibitory activity. Compounds were screened at 10, 1, 0.1, 0.01 and 0.001 μM.

T1 sequence (Q01959 whole entry): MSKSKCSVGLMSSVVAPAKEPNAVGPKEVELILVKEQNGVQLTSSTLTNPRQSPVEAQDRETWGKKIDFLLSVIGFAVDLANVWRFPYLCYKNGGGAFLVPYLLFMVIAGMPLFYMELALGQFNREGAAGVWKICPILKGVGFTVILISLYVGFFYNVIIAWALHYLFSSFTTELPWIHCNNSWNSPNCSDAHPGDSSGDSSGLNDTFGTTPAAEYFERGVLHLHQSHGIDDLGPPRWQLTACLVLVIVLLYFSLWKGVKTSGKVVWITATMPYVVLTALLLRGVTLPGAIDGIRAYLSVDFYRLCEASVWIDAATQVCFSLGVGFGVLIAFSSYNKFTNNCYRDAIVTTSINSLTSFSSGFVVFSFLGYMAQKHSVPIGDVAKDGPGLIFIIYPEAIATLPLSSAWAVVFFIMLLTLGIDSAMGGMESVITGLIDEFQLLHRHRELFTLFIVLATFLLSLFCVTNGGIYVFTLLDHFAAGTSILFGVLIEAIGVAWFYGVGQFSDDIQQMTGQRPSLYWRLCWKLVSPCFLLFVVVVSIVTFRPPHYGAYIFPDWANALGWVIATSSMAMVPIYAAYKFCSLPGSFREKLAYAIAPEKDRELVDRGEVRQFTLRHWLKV

As to `CCCC[C@@H]1OC(=O)c2ccccc21` (stereo in doubt) [3-n-butylphthalide, 3-n-Butylphthalide], the 50% inhibitory concentration (IC50) amounted to 22 µM.

As usually defined, the IC50 is the point on the concentration scale where inhibition reaches its midpoint. Low values mean higher potency, high ones lower potency.
